Legend:
[1] = target: Group IIA secretory phospholipase A2 (Homo sapiens); assay: Compound was measured for the inhibitory activity against Secretory phospholipase A 2 (s-PLA2)
[2] = target: Group IIA secretory phospholipase A2 (Homo sapiens); assay: Compound was measured for the inhibitory activity against secretory-phospholipase A2 (s-PLA2)

Structure (SMILES)	IC50 [1]	IC50 [2]
CCCCCCCOc1ccc(C(=O)O)cc1CC(=O)C(F)(F)F [4-Heptyloxy-3-(3,3,3-trifluoro-2-oxo-propyl)-benzoic acid]	1.7 µM	–
CCCCCCCCOP(=O)(O)c1cccc2ccc(C(=O)O)cc12 [8-(Hydroxy-octyloxy-phosphoryl)-naphthalene-2-carboxylic acid]	> 200 µM	–
CCCCCCCCCCCCCCCCCCOP(=O)(O)c1cccc2ccc(C(=O)O)cc12 [8-(Hydroxy-octadecyloxy-phosphoryl)-naphthalene-2-carboxylic acid]	–	3.9 µM
O=C(O)c1ccc2cccc(C(=O)C(F)(F)F)c2c1 [8-(2,2,2-Trifluoro-acetyl)-naphthalene-2-carboxylic acid]	2.4 µM	–
CCCCCCCCCCOP(=O)(O)c1cc(OCc2ccccc2)ccc1/C=C/C(=O)O [(E)-3-[4-Benzyloxy-2-(decyloxy-hydroxy-phosphoryl)-phenyl]-acrylic acid]	4.5 µM	–
